Source: patent EP4656642A1, “ESTROGEN RECEPTOR PROTEOLYSIS TARGETING CHIMERA COMPOUND AND USE THEREOF” (GAN & LEE PHARM CO., LTD, priority 2023, dated 2024)

Experiments:
Format in all cases: cell-based
ERα [1] = target: T1, ERα (Homo sapiens, UniProt P03372); assay: Degradation of ERα in MCF-7 cells (immunoblotting, 4 h)
T1 sequence (P03372 1-595): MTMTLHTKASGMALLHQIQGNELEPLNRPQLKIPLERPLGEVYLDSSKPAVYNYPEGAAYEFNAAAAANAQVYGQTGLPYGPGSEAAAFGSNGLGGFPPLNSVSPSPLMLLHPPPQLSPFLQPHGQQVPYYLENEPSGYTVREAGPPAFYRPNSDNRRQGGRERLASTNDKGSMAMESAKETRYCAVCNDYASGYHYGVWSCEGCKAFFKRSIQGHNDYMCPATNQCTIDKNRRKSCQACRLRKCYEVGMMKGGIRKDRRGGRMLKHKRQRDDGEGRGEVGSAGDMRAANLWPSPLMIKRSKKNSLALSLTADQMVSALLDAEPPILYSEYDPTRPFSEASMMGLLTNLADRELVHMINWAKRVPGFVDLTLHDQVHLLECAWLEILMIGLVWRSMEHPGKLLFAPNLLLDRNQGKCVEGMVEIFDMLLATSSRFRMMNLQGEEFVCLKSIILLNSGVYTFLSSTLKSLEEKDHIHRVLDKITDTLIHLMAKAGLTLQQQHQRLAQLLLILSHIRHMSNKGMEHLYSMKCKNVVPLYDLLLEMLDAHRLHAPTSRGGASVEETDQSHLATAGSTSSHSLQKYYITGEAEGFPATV
Method in brief: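 MCF-7 cells treated 4 h at 37°C with compounds at 0.15-1000nM final. ERα in lysates measured by immunoblot, with band grayscale normalized to an internal reference protein. Degradation rate calculated against DMSO-treated control.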

T-47D cells = assay: Inhibition of cell proliferation in T-47D cells (CCK-8, 6 days); settings: 6 days of treatment, Table 3
Method in brief: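 T-47D cells at 3,000 cells/well in RPMI 1640 with 10% FBS were exposed to a concentration series of PROTAC compounds for 6 days at 37 °C, 5% CO2. Viability was read by CCK-8, and IC50 values were derived for proliferation inhibition.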

ERα [2] = target: T1, ERα; assay: Degradation of ERα in T-47D cells (immunoblotting, 4 h); parameters: host or cells: T-47D
Method in brief: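 T-47D cells were treated with compound (final 0.15-1000 nM, DMSO) for 4 h at 37°C, 5% CO2. Cells were lysed in RIPA buffer with protease inhibitor, and ERα protein in the cleared lysate was measured by immunoblotting.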

MCF-7 cells = assay: Inhibition of cell proliferation of MCF-7 cells (CCK-8, 9 days); settings: treated for 9 days, CCK-8 kit (Table 6)
Method in brief: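 MCF-7 cells seeded at 800 cells/well in DMEM with 10% FBS, exposed to a range of compound concentrations for 9 days at 37°C, 5% CO2. Viability read by CCK-8; IC50 derived for proliferation inhibition.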

Row | SMILES | Degradation rate (%) of ERα in MCF-7 cells (ERα [1]; 1nM compound) [%] | Degradation rate (%) of ERα in MCF-7 cells (ERα [1]; 10nM compound) [%] | IC50 (T-47D cells) [nM] | Degradation rate (%) of ERα in T-47D cells (ERα [2]; 1nM compound) [%] | Degradation rate (%) of ERα in T-47D cells (ERα [2]; 10nM compound) [%] | IC50 (MCF-7 cells) [nM]
1 | O=C1CCC(N2Cc3c(ccc4c3OCC43CCN(C4CCN(C5CCN(c6ccc([C@@H]7c8ccc(O)cc8CC[C@@H]7c7ccccc7)cc6)CC5)CC4)CC3)C2=O)C(=O)N1 (stereo partly drawn) [A54] | 40 | 65 | 6.16 | 15 | 62 | < 0.256
2 | O=C1CCC(N2Cc3c(ccc4c3OCC43CCN(C(=O)C4CCC(N5CCC(C#Cc6ccc([C@@H]7c8ccc(O)cc8CC[C@@H]7c7ccccc7)cc6)CC5)CC4)CC3)C2=O)C(=O)N1 (stereo partly drawn) [A101] | 52 | 61 | 0.91 | 44 | 45 | 850
3 | C[C@@H]1Cc2c([nH]c3ccccc23)[C@@H](c2c(F)cc(N3CCC4(CCC(N5CCC6(CC5)COc5c6ccc6c5CN(C5CCC(=O)NC5=O)C6=O)CC4)CC3)cc2F)N1CC(F)F (stereo partly drawn) [A103] | 37 | 70 | 2.99 | 29 | 68 | 13.6
4 | C[C@@H]1CN(C(=O)C2(F)CCN(c3ccc([C@@H]4c5ccc(O)cc5CC[C@@H]4c4ccccc4)cc3)CC2)CCC1N1CCC2(CC1)COc1c2ccc2c1CN(C1CCC(=O)NC1=O)C2=O (stereo partly drawn) [A96] | 40 | 66 | 3.38 | 31 | 78 | 11
5 | O=C1CCC(N2Cc3c(ccc4c3OCC43CCN(C(=O)c4ccc(CN5CCN(c6ccc([C@@H]7c8ccc(O)cc8CC[C@@H]7c7ccccc7)cc6)CC5)cn4)CC3)C2=O)C(=O)N1 (stereo partly drawn) [B41] | 59 | 53 | 0.75 | 66 | 74 | 29200
6 | O=C1CCC(N2Cc3c(ccc4c3OCC43CCN(C(=O)CC4CCN(C(=O)C5CCN(c6ccc([C@@H]7c8ccc(O)cc8CC[C@@H]7c7ccccc7)cc6)CC5)CC4)CC3)C2=O)C(=O)N1 (stereo partly drawn) [A123] | 29 | 61 | 1.34 | 66 | 84 | 164
7 | N#CC1(CN2CCC3(CC2)COc2c3ccc3c2CN(C2CCC(=O)NC2=O)C3=O)CCN(C(=O)C2CCN(c3ccc([C@@H]4c5ccc(O)cc5CC[C@@H]4c4ccccc4)cc3)CC2)CC1 (stereo partly drawn) [A108] | 22 | 46 | 1.8 | 41 | 73 | 7390
8 | O=C1CCC(N2Cc3cc4c(cc3C2=O)OC2(CC4)CCN(CC3CCC4(CC3)CCN(c3ccc([C@@H]5c6ccc(O)cc6CC[C@@H]5c5ccccc5)cc3)CC4)CC2)C(=O)N1 (stereo partly drawn) [A40] | 15 | 35 | 13 | 6 | 25 | 76
9 | C[C@H]1CN(C(=O)C2(F)CCN(c3ccc([C@@H]4c5ccc(O)cc5CC[C@@H]4c4ccccc4)cc3)CC2)CCC1N1CCC2(CC1)COc1c2ccc2c1CN(C1CCC(=O)NC1=O)C2=O (stereo partly drawn) [A97] | 50 | 75 | 2.33 | 45 | 78 | 217
10 | O=C1CCC(N2Cc3cc4c(cc3C2=O)CCC2(CN(C(=O)C3CC5(CCN(c6ccc([C@@H]7c8ccc(O)cc8CC[C@@H]7c7ccccc7)cc6)CC5)C3)C2)O4)C(=O)N1 (stereo partly drawn) [A48] | 4 | 11 | 12.3 | -37 | 23 | 7440

More lines, now with the values ahead:

Row | Degradation rate (%) of ERα in MCF-7 cells (ERα [1]; 1nM compound) [%] | Degradation rate (%) of ERα in MCF-7 cells (ERα [1]; 10nM compound) [%] | IC50 (T-47D cells) [nM] | Degradation rate (%) of ERα in T-47D cells (ERα [2]; 1nM compound) [%] | Degradation rate (%) of ERα in T-47D cells (ERα [2]; 10nM compound) [%] | IC50 (MCF-7 cells) [nM] | SMILES
11 | 39 | 54 | 12.7 | 41 | 62 | 119 | C[C@@H]1Cc2cc(O)ccc2[C@@H](c2c(F)cc(N3CC4(CCC(N5CCC6(CC5)COc5c6ccc6c5CN(C5CCC(=O)NC5=O)C6=O)CC4)C3)cc2F)N1CC(F)(F)F (stereo partly drawn) [I4]
12 | 54 | 73 | 3 | 64 | 85 | 132 | O=C1CCC(N2Cc3c(ccc4c3OCC43CCN(CCN4CCC5(CCN(c6ccc([C@@H]7c8ccc(O)cc8CC[C@@H]7c7ccccc7)cc6)CC5)C4)CC3)C2=O)C(=O)N1 (stereo partly drawn) [N4]
13 | 37 | 70 | 2.59 | 4 | 44 | 19.6 | CC1CN(C2CC3(CCN(c4ccc([C@@H]5c6ccc(O)cc6CC[C@@H]5c5ccccc5)cc4)CC3)C2)CCC1N1CCC2(CC1)COc1c2ccc2c1CN(C1CCC(=O)NC1=O)C2=O (stereo partly drawn) [K20]
14 | 12 | -2 | 10.4 | -11 | -15 | 330 | O=C1CCC(N2Cc3ccc4c(c3C2=O)OC2(CC4)CCN(CC3CCN(c4ccc([C@@H]5c6ccc(O)cc6CC[C@@H]5c5ccccc5)cc4)CC3)CC2)C(=O)N1 (stereo partly drawn) [H7]
15 | 18 | 58 | 1.55 | 69 | 57 | 7380 | O=C1CCC(N2Cc3c(ccc4c3OCC43CCN(CC(=O)N4CCN(c5ccc([C@@H]6c7ccc(O)cc7CC[C@@H]6c6ccccc6)cc5)CC4)CC3)C2=O)C(=O)N1 (stereo partly drawn) [H18]
16 | 4 | 28 | 15.9 | -1 | 11 | 35.5 | O=C1CCC(N2Cc3c(ccc4c3OCC43CCN(C4CCC(Oc5ccc([C@@H]6c7ccc(O)cc7CC[C@@H]6c6ccccc6)cc5)CC4)CC3)C2=O)C(=O)N1 (stereo partly drawn) [H12]
17 | 69 | 84 | 1.42 | 56 | 86 | 57.9 | CCNC(=O)[C@@H]1CC(N2CCC3(CC2)COc2c3ccc3c2CN(C2CCC(=O)NC2=O)C3=O)CCN1C1CC2(CCN(c3ccc([C@@H]4c5ccc(O)cc5CC[C@@H]4c4ccccc4)cc3)CC2)C1 (stereo partly drawn) [H40]
18 | 57 | 78 | 1.04 | 61 | 86 | 5.67 | CC1CN(C(=O)C2CCN(c3ccc(C4c5ccc(O)cc5CCC4c4ccccc4)cc3)CC2)CCC1N1CCC2(CC1)COc1c2ccc2c1CN(C1CCC(=O)NC1=O)C2=O (stereo not drawn) [K23]
19 | 20 | 71 | 3.38 | 15 | 64 | 65.2 | C[C@H]1CN(C2CC3(CCN(c4ccc([C@@H]5c6ccc(O)cc6CC[C@@H]5c5ccccc5)cc4)CC3)C2)CC[C@H]1N1CCC2(CC1)COc1c2ccc2c1CN(C1CCC(=O)NC1=O)C2=O (stereo partly drawn) [H39]
20 | 36 | 73 | 3.74 | 53 | 85 | 5.06 | O=C1CCC(N2Cc3c(ccc4c3OCC43CCN(C4CCN(C5CC6(CCN(c7ccc([C@@H]8c9ccc(O)cc9CC[C@@H]8c8ccccc8)cc7)CC6)C5)[C@H](C(=O)NC5CCCC5)C4)CC3)C2=O)C(=O)N1 (stereo partly drawn) [H44]
